Experimental data as given in patent US20260078120A1, “SUBSTITUTED PYRIDOPYRIMIDINONES” (MIRATI THERAPEUTICS, INC., priority 2022, published 2026).

Legend:
Format in all cases: cell-based
[1] = tested on: T47D (PI3Kα H1047R mutant) cells; test: CellTiter-Glo 2.0 luminescent cell viability assay, 72 hours, T47D cells; details: Homo sapiens, T47D, 72 h, T47D (PI3Kα H1047R mutant) cells, CellTiter-Glo, approximately 72 hours; read-out: T47D (H1047R mutant) Viability IC50
Procedure, shortened: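 Viability was measured by CellTiter-Glo 2.0 luminescence after approximately 72 h of compound exposure at 37° C. Plating was 1000 cells per well the day before dosing, with ten 1:4 dilutions from a 10 µM top concentration. Values as percent of vehicle were fitted by variable-slope log(inhibitor) regression to give IC50.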

[2] = tested on: SKBR3 (PI3Kα wild type) cells; test: CellTiter-Glo 2.0 luminescent cell viability assay, 72 hours, SKBR3 cells; details: Homo sapiens, SK-BR-3, 72 h, SKBR3 (PI3Kα wild type) cells, CellTiter-Glo, approximately 72 hours; read-out: SKBR3 (WT) Viability IC50
Procedure, shortened: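 Viability measured via CTG luminescence following roughly 72 hours of compound exposure at 37° C. Dosing used a 10 um starting concentration diluted 1:4 over 10 points; percent-of-vehicle data fitted with a variable-slope four-parameter model for IC50.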

[3] = tested on: T47D (PI3Kα H1047R mutant) cells; test: Inhibition of pAKT formation, alphaLISA SureFire Ultra AKT 1/2/3 (pS473), T47D cells; details: Homo sapiens, T47D, T47D (PI3Kα H1047R mutant) cells; inhibition of pAKT (pS473) formation; approximately one hour or 24 hours treatment; read-out: T47D pAKT (H1047R mutant) IC50
Experimental: The ability of a compound of Formula (I) to inhibit the formation of pAKT was measured using alphaLISA Surefire Ultra AKT 1/2/3 (pS473) Assay Kit (#ALSU-PAKT-B50K) was obtained from Perkin Elmer (Waltham, MA).
To prepare assay plates for pAKT alphaLISA assays, cells were trypsinized, resuspended in fresh media, and viable cells were counted utilizing trypan blue exclusion. Prior to seeding, cells were washed with PBS and resuspended in HBSS (Gibco, #14025092). T47D (12,000/w), SKBR3(12,000/w), or MKN1(24,000/w) cells were seeded at 12 μl per well in a solid white flat bottom 384 cell culture plate (Perkin Elmer #6007680).
Immediately after seeding, cells were dosed using an Echo Liquid Handler (Beckman Coulter) with compounds at a […] starting concentration and serially diluted (1:4) for a total of 10 concentrations. […] Cells were incubated with the compounds (solubilized in DMSO) for approximately one hour or 24 hours at 37° C. After one hour (or 24 hours) of treatment, cells were lysed with 3 μl of the 5× lysis buffer (provided and incubated at room temperature for 15 min on a microtiter plate shaker). Once cells were sufficiently lysed, 7.5 μl of the acceptor bead mix (made using the manufacturers recommended dilutions) was added to each well and left on the microtiter plate shaker for 1 min prior to incubating plates at room temperature for one hour, in the absence of light. After one hour of incubation with the acceptor bead mix, 7.5 μl of the donor bead mix (made using the manufacturers recommended dilutions) was added to each well and left on the microtiter plate shaker for 1 min prior to incubating plates at room temperature overnight in the absence of light. Plates were then imaged the following day using a CLARIOstar microplate reader (BMG Labtech, Germany).
Percent of control values were calculated by subtracting the average signal from the positive control (alpelisib) treated wells from all treated wells (including DMSO control wells) and then divided by the average signal from the vehicle DMSO treated control wells. Percent of vehicle control values were plotted as log (inhibitor) vs. response-Variable slope (four parameters) for curve fitting and IC50 values were determined using XLfit.
Key: N.D. =not determined
Inhibition of pAKT in T47D (PI3Kα H1047R mutant) cells by Exemplary Compounds of Formula (I)

Compound | IC50 [1] [nM] | IC50 [2] [µM] | IC50 [3] [nM]
Cc1cc([C@@H](C)Nc2ccccc2C(=O)O)c2nc(N3CC(F)(F)C(F)(F)C3)c(C)c(=O)n2c1 [Example 10-51, (R)-2-((1-(3,7-dimethyl-4-oxo-2-(3,3,4,4-tetrafluoropyrrolidin-1-yl)-4H-pyrido[1,2-a]pyrimidin-9-yl)ethyl)amino)benzoic acid] | 68 | > 10 | 1.93
Cc1cc([C@@H](C)Nc2ccccc2C(=O)O)c2nc(N3CCN(c4ccc(C#N)cc4F)CC3)c(C)c(=O)n2c1 [Example 10-55, (R)-2-((1-(2-(4-(4-cyano-2-fluorophenyl)piperazin-1-yl)-3,7-dimethyl-4-oxo-4H-pyrido[1,2-a]pyrimidin-9-yl)ethyl)amino)benzoic acid] | 72.4 | 4.14 | 3.35
COC1(C)CCN(c2nc3c([C@@H](C)Nc4ccccc4C(=O)O)cc(C)cn3c(=O)c2C)CC1 [Example 10-56, (R)-2-((1-(2-(4-methoxy-4-methylpiperidin-1-yl)-3,7-dimethyl-4-oxo-4H-pyrido[1,2-a]pyrimidin-9-yl)ethyl)amino)benzoic acid] | 73.2 | > 10 | 3.95
Cc1cc([C@@H](C)Nc2ccccc2C(=O)O)c2nc(N3CCN(c4ccccc4)CC3C)c(C#N)c(=O)n2c1 (stereo partly drawn) [Example 10-57, 2-(((1R)-1-(3-cyano-7-methyl-2-(2-methyl-4-phenylpiperazin-1-yl)-4-oxo-4H-pyrido[1,2-a]pyrimidin-9-yl)ethyl)amino)benzoic acid] | 73.3 | > 10 | 5.17
Cc1cc([C@@H](C)Nc2ccccc2C(=O)O)c2nc(N3CCC(c4ccn(C)n4)CC3)c(C)c(=O)n2c1 [Example 10-58, (R)-2-((1-(3,7-dimethyl-2-(4-(1-methyl-1H-pyrazol-3-yl)piperidin-1-yl)-4-oxo-4H-pyrido[1,2-a]pyrimidin-9-yl)ethyl)amino)benzoic acid] | 73.3 | > 10 | 4.02
Cc1cc([C@@H](C)Nc2ccccc2C(=O)O)c2nc(NCC3(C)CC3(F)F)c(C#N)c(=O)n2c1 (stereo partly drawn) [Example 10-60, 2-(((1R)-1-(3-cyano-2-(((2,2-difluoro-1-methylcyclopropyl)methyl)amino)-7-methyl-4-oxo-4H-pyrido[1,2-a]pyrimidin-9-yl)ethyl)amino)benzoic acid] | 98.8 | > 10 | 2.62
Cc1cc([C@@H](C)Nc2ccccc2C(=O)O)c2nc(N3CCC(F)(F)C3)c(C#N)c(=O)n2c1 [Example 10-75, (R)-2-((1-(3-cyano-2-(3,3-difluoropyrrolidin-1-yl)-7-methyl-4-oxo-4H-pyrido[1,2-a]pyrimidin-9-yl)ethyl)amino)benzoic acid] | 110 | > 10 | 1.05
Cc1cc([C@@H](C)Nc2ccccc2C(=O)O)c2nc(N3CC4CC3C4)c(C#N)c(=O)n2c1 [Example 10-76, (R)-2-((1-(2-(2-azabicyclo[2.1.1]hexan-2-yl)-3-cyano-7-methyl-4-oxo-4H-pyrido[1,2-a]pyrimidin-9-yl)ethyl)amino)benzoic acid] | 109 | > 10 | 1.7
Cc1cc([C@@H](C)Nc2ccccc2C(=O)O)c2nc(N3CCN(c4ccc(C#N)cc4C)CC3)c(C)c(=O)n2c1 [Example 10-77, (R)-2-((1-(2-(4-(4-cyano-2-methylphenyl)piperazin-1-yl)-3,7-dimethyl-4-oxo-4H-pyrido[1,2-a]pyrimidin-9-yl)ethyl)amino)benzoic acid] | 107 | > 10 | 3.8
COC1(C)CCN(c2nc3c([C@@H](C)Nc4ccccc4C(=O)O)cc(C)cn3c(=O)c2C#N)CC1 [Example 10-78, (R)-2-((1-(3-cyano-2-(4-methoxy-4-methylpiperidin-1-yl)-7-methyl-4-oxo-4H-pyrido[1,2-a]pyrimidin-9-yl)ethyl)amino)benzoic acid] | 74 | > 10 | 2.21
Cc1cc([C@@H](C)Nc2ccccc2C(=O)O)c2nc(N3CCCCC3)c(F)c(=O)n2c1 [Example 10-79, (R)-2-((1-(3-fluoro-7-methyl-4-oxo-2-(piperidin-1-yl)-4H-pyrido[1,2-a]pyrimidin-9-yl)ethyl)amino)benzoic acid] | 77.5 | > 10 | 0.299
Cc1cc([C@@H](C)Nc2ccccc2C(=O)O)c2nc(N(C)CC3CC3)c(C#N)c(=O)n2c1 [Example 10-80, (R)-2-((1-(3-cyano-2-((cyclopropylmethyl)(methyl)amin0)-7-methyl-4-oxo-4H-pyrido[1,2-a]pyrimidin-9-yl)ethyl)amino)benzoic acid] | 75 | > 10 | 1.98
Cc1cc([C@@H](C)Nc2ccccc2C(=O)O)c2nc(N3CCC4(CC3)C(F)(F)C4(F)F)c(C#N)c(=O)n2c1 [Example 10-81, (R)-2-((1-(3-cyano-7-methyl-4-oxo-2-(1,1,2,2-tetrafluoro-6-azaspiro[2.5]octan-6-yl)-4H-pyrido[1,2-a]pyrimidin-9-yl)ethyl)amino)benzoic acid] | 78.5 | > 10 | 2.53
Cc1cc([C@@H](C)Nc2ccccc2C(=O)O)c2nc(N3CCN(C(=O)c4ccc(Cl)cc4)CC3)c(C)c(=O)n2c1 [Example 10-82, (R)-2-((1-(2-(4-(4-chlorobenzoyl)piperazin-1-yl)-3,7-dimethyl-4-oxo-4H-pyrido[1,2-a]pyrimidin-9-yl)ethyl)amino)benzoic acid] | 78.5 | 7.91 | 2.6
Cc1cc([C@@H](C)Nc2ccccc2C(=O)O)c2nc(N3CCN(C(=O)C4CCCC4)CC3)c(C)c(=O)n2c1 [Example 10-84, (R)-2-((1-(2-(4-(cyclopentanecarbonyl)piperazin-1-yl)-3,7-dimethyl-4-oxo-4H-pyrido[1,2-a]pyrimidin-9-yl)ethyl)amino)benzoic acid] | 79 | > 10 | 2.98
Cc1cc([C@@H](C)Nc2ccc(Cl)nc2C(=O)O)c2nc(NCC3CC3)c(C)c(=O)n2c1 [Example 10-85, (R)-6-chloro-3-((1-(2-((cyclopropylmethyl)amino)-3,7-dimethyl-4-oxo-4H-pyrido[1,2-a]pyrimidin-9-yl)ethyl)amino)picolinic acid] | 79.5 | > 10 | 2
Cc1cc([C@@H](C)Nc2ccccc2C(=O)O)c2nc(N3CCN(c4ccc(F)cc4F)CC3)c(C#N)c(=O)n2c1 [Example 10-86, (R)-2-((1-(3-cyano-2-(4-(2,4-difluorophenyl)piperazin-1-yl)-7-methyl-4-oxo-4H-pyrido[1,2-a]pyrimidin-9-yl)ethyl)amino)benzoic acid] | 80 | > 10 | 15.5
Cc1cc([C@@H](C)Nc2ccccc2C(=O)O)c2nc(N3Cc4cc(F)c(F)cc4C3)c(C#N)c(=O)n2c1 [Example 10-87, (R)-2-((1-(3-cyano-2-(5,6-difluoroisoindolin-2-yl)-7-methyl-4-oxo-4H-pyrido[1,2-a]pyrimidin-9-yl)ethyl)amino)benzoic acid] | 80.2 | > 10 | 2.23
